Key:
velvet leaf (ABUTH) = test: greenhouse herbicidal action, post-emergence treatment; type: in vivo; conditions: application rates of 15.6 and 31.3 g of a.s./ha
Excerpt: (§1) The seeds of the test plants were sewn separately for each species. For the post-emergence treatment, the test plants were first grown to a height of from 3 to 15 cm, depending on the plant habit, and only then treated with the active compounds which had been suspended or emulsified in water. The test plants were for this purpose either sown directly and grown in the same containers, or they were first grown separately as seedlings and transplanted into the test containers a few days prior to treatment. The application rate for the post-emergence treatment was 31.3 and 15.6 g of a.s./ha. Depending on the species, the plants were kept at 10-25° C. or 20-35° C. The test period extended over 2 to 4 weeks. During this time, the plants were tended, and their response to the individual treatments was evaluated. The evaluation was carried out using a scale from 0 to 100. 100 means no emergence of the plants, or complete destruction of at least the above-ground parts, and 0 means no damage, or normal course of growth. The plants used in the greenhouse experiments were of the following species: [table]

redroot pigweed (AMARE) = test: as above; type: in vivo; conditions: application rates of 15.6 and 31.3 g of a.s./ha
Excerpt: as §1

dayflower (COMBE) = test: as above; type: in vivo; conditions: application rates of 15.6 and 31.3 g of a.s./ha
Excerpt: as §1

[1] = tested on: catchweed bedstraw (GALAP); test: as above; type: in vivo; conditions: application rates of 15.6 and 31.3 g of a.s./ha
Excerpt: as §1

morning glory (IPOSS) = test: as above; type: in vivo; conditions: application rates of 15.6 and 31.3 g of a.s./ha
Excerpt: as §1

melting point [°C] | SMILES | herbicidal action (velvet leaf (ABUTH)) | herbicidal action (redroot pigweed (AMARE)) | herbicidal action (dayflower (COMBE)) | herbicidal action [1] | herbicidal action (morning glory (IPOSS))
161 to 164 | CS(=O)(=O)Nc1cc(-c2nsc(C(F)(F)F)c2Cl)c(Cl)cc1Cl [IAa.361, N-{2,4-Dichloro-5-[4-chloro-5-(trifluoromethyl)-3-isothiazolyl]-phenyl}methanesulfonamide] | – | – | – | – | –
110 to 111 | FC(F)(F)c1snc(-c2c(Cl)cc(Cl)c3nc(C4CC4)oc23)c1Cl [IDa.67, 4,6-Dichloro-7-(4-chloro-5-trifluoromethyl-3-isothiazolyl)-2-cyclopropyl-1,3-benzoxazole] | – | – | – | – | –
– | COC(=O)C(C)Oc1cc(-c2nsc(C(F)(F)F)c2Cl)c(F)cc1Cl (stereo not shown) [IAa.727, Methyl 2-[2-chloro-4-fluoro-5-(4-chloro-5-trifluoromethylisothiazol-3-yl)phenoxy]propionate] | very good herbicidal action | very good herbicidal action | very good herbicidal action | very good herbicidal action | very good herbicidal action

Source: patent US20040023807A1, “3-Arylisothiazoles and their use as herbicides” (priority 2000, published 2004)
